This is an account of results in US12264156B2, “Compounds and pharmaceutical compositions thereof for the treatment of diseases” (GALAPAGOS NV, priority 2018, dated 2025).

One assay concerns the target T1, SIK1 (Homo sapiens, UniProt P57059).
T1 construct: purchased Carna Biosciences 02-131
The experiment in a line: ADP-Glo kinase assay, SIK1. Format: biochemical. Conditions: ADP-Glo SIK kinase assay. The essentials:
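Enzyme–substrate mix was started with ATP and incubated 120 min at RT. ADP formed was quantified by ADP-Glo: 40 min ATP depletion, then 30 min detection reagent converting ADP to ATP for luciferase luminescence, which rises with kinase activity. Controls: 1% DMSO and 10 μM staurosporine (final).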
Background: ADP-Glo turns the ADP formed in a reaction into a luminescent signal.

The test system of assay [1] is LPS triggered IL-10 secretion in monocyte-derived macrophages (MdM). The experiment in a line: MdM assay: LPS-triggered IL-10 (ELISA). Conditions: LPS 200 ng/mL, supernatant after 2 h, maximal fold change vs LPS only. Format: cell-based, human. The method, then:
SIK inhibition inhibits TNFα and increases IL-10 release in LPS triggered monocyte-derived macrophages (MdM) and dendritic […] al. 2012; Sundberg et al. 2014; Ozanne et al. 2015). This assay evaluates illustrative compounds of the invention for their inhibition of LPS-induced TNFα and LPS triggered IL-10 secretion in monocyte-derived macrophages. PBMCs are isolated from human blood samples (buffycoats). The buffy coat is aseptically transferred into a 50 mL Falcon tube, and diluted 1/2 in PBS. Falcon tubes are filled with 20 mL LymphoprepTM, on top of which 25 mL of the buffy coat is carefully added, tubes are centrifuged for 35 min at 400 g in temperature controlled centrifuge, without brake, at 25° C. PBMCs are aspirated from the white interface layer between sample and LymphoprepTM. PBMCs are washed five times in PBS. Cells are resuspended in RPMI 1640 complete medium supplemented with 10% FBS, 1% P/S, and cell density is determined using a hematologic analyzer (Sysmex XS-500i). PBMCs are centrifuged at 300×g for 10 min and resuspended at a density of 1.0*10^7 cells/80 μL Miltenyi buffer (PBS, pH 7.4, 1% FBS, 2 mM EDTA). Starting from this point of the protocol all steps are performed on ice. 20 μL of CD14+ micro-beads are added per 1.0*10^7 cells, the tube is mixed and incubated for 15 min in the fridge at 4° C. Cell suspension volume is adjusted to total volume of 100 mL using Miltenyi buffer, mixed gently and subsequently centrifuged for 10 min at 300×g. Supernantant is discarded and cell pellet is resuspended in 12 mL of Miltenyi buffer. Four LS columns are placed in the MACS Separator (magnet) from Miltenyi Biotec, and are prewet by rinsing with 3 mL of MACS buffer per column. Three mL of cell suspension is added onto the column (max 1*10^8 of labelled cells/column), and columns are subsequently washed 3 times with 3 mL of Miltenyi buffer. The columns are removed from the magnets, and 5 mL of Miltenyi buffer are added to the column to flush out the CD14+ fraction by pushing the plunger into the column. The flushed fractions are collected in a fresh 50 mL Falcon and volume is adjusted to 30 mL using Miltenyi buffer, cells are centrifuged for 10 min at 300×g. The obtained cell pellet is resuspended in 10 mL RPMI w/o FBS, and cell density is determined using a hematologic analyser (Sysmex XS-500i). 100 000 cells are seeded per well of a 96-well plate for differentiation to MdM in RPMI 1640 medium supplemented with 10% FBS, 1% P/S and 100 ng/mL rhM-CSF. On day 5 the medium is refreshed with 100 μL RPMI 1640 medium supplemented with 10% FBS, 1% P/S and 100 ng/mL rhM-CSF. On day 10, MdMs are triggered and compound is added. A compound dilution plate is made in 100% DMSO by 3-fold dilution of 10 mM stock solution. An intermediate dilution plate (10× final concentration) is made by diluting the compound dilution plate 50-fold in RPMI medium. Medium is carefully removed from cell plates using multichannel pipette, and replaced by 80 μL fresh medium. 10 μL of the 10× final concentration compound is added to the cells and incubated for 1 hour at 37° C. before addition of trigger. No trigger conditions/trigger conditions are spiked with equal final DMSO concentrations of 0.2% DMSO. 10 μL of 10×LPS (final conc. 200 ng/mL) solution are added to all wells except for the 'no trigger wells' where 10 μL medium is added. Supernatant is collected after 2 h (IL-10 determination) and after 20 h (TNFα determination) of LPS triggering. […]
Background: ELISA stands for enzyme-linked immunosorbent assay.

Each structure is given as a SMILES string.

What is called IC50 is the concentration needed to halve the response being measured. Higher therefore signals weaker potency in that assay.

T1 sequence (P57059 whole entry): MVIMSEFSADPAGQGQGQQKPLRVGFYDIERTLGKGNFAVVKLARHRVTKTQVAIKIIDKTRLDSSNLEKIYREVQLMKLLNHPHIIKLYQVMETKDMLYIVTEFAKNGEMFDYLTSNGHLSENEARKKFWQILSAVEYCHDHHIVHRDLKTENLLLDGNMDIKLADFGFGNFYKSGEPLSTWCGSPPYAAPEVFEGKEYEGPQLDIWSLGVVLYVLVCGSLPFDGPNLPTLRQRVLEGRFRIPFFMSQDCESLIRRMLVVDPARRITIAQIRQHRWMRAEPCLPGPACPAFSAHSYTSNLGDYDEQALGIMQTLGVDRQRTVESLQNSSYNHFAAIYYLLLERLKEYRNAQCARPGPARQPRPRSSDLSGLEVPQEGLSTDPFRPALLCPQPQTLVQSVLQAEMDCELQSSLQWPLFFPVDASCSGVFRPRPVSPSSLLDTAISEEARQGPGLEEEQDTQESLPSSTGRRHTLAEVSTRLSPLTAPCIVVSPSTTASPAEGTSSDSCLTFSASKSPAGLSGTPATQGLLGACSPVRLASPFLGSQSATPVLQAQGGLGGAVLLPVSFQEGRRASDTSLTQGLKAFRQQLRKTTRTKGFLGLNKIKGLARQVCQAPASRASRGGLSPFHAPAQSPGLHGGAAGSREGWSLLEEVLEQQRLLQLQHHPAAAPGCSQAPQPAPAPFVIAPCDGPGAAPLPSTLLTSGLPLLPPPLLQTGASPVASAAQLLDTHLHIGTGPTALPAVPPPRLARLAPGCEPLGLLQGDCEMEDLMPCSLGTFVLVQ

`COc1cc(-c2cnc3cc(OCCN4CCS(=O)(=O)CC4)ccn23)cc2c1C(=O)N(CC(F)(F)F)CC2` [compound 41, 6-[7-[2-(1,1-dioxo-1,4-thiazinan-4-yl)ethoxy]imidazo[1,2-a]pyridin-3-yl]-8-methoxy-2-(2,2,2-trifluoroethyl)-3,4-dihydroisoquinolin-1-one] displayed an IC50 at SIK1 of 100 to 500 nM. For the same compound, the “IL-10 FCmax median” value in assay [1] is “++ (>1.5-4.5)”.
At SIK1, `COc1cc(-c2cnc3cc(OC[C@H]4CCCCN4C)ccn23)cc(OC(F)F)c1C(=O)NC1CC1` [compound 111, N-cyclopropyl-2-(difluoromethoxy)-6-methoxy-4-[7-[[(2R)-1-methyl-2-piperidyl]methoxy]imidazo[1,2-a]pyridin-3-yl]benzamide] registered an IC50 of 100 to 500 nM. The “IL-10 FCmax median” value in assay [1] is “++ (>1.5-4.5)”.
On the same counts, the results for `COc1cc(-c2cnc3cc(OCCC4CCCN4C)ccn23)cc2c1C(=O)N(CC(F)(F)F)CC2` (centres unmarked) [Cpd 122, 8-methoxy-6-[7-[2-(1-methylpyrrolidin-2-yl)ethoxy]imidazo[1,2-a]pyridin-3-yl]-2-(2,2,2-trifluoroethyl)-3,4-dihydroisoquinolin-1-one] are 100 to 500 nM and “++ (>1.5-4.5)”.
The like results for `COc1cc(-c2cnc3cc(OCCN4CCOC[C@@H]4C)ccn23)cc(OC(F)F)c1C(=O)NC1CC1` [compound 233, N-cyclopropyl-2-(difluoromethoxy)-6-methoxy-4-[7-[2-[(3S)-3-methylmorpholin-4-yl]ethoxy]imidazo[1,2-a]pyridin-3-yl]benzamide] were, in that order, 10 to 100 nM and “++ (>1.5-4.5)”.
`COc1cc(-c2cnc3cc(OCCN4C[C@@H]5C[C@H]4CO5)ccn23)cc(OC(F)F)c1C(=O)NC1CC1` [compound 206, N-cyclopropyl-2-(difluoromethoxy)-6-methoxy-4-[7-[2-[(1S,4S)-2-oxa-5-azabicyclo[2.2.1]heptan-5-yl]ethoxy]imidazo[1,2-a]pyridin-3-yl]benzamide]: on SIK1, the IC50 was 10 to 100 nM. Moreover, the “IL-10 FCmax median” value in assay [1] was “++ (>1.5-4.5)”.
The compound `COc1cc(-c2cnc3cc(OCCCN(C)C)ccn23)cc(OC(F)F)c1C(=O)NC1CC1` [Cpd 13] showed an IC50 on SIK1 of 10 to 100 nM. Besides, the “IL-10 FCmax median” value in assay [1] is listed as “++ (>1.5-4.5)”.
The like results for `CNc1cc(-c2cnc3cc(OCCN(C)C)ccn23)cc2c1C(=O)N(CC(F)(F)F)CC2` [compound 167, 6-[7-[2-(dimethylamino)ethoxy]imidazo[1,2-a]pyridin-3-yl]-8-(methylamino)-2-(2,2,2-trifluoroethyl)-3,4-dihydroisoquinolin-1-one] were, in that order, over 500 nM and “+ (≤1.5)”.
On the same counts, the results for `COc1cc(-c2cnc3cc(OCCCN4CCNCC4)ccn23)cc(OC(F)F)c1C(=O)NC1CC1` [compound 278, N-cyclopropyl-2-(difluoromethoxy)-6-methoxy-4-[7-(3-piperazin-1-ylpropoxy)imidazo[1,2-a]pyridin-3-yl]benzamide] are 0.01 to 10 nM and “++ (>1.5-4.5)”.
In the case of `COc1cc(-c2cnc3cc(OCC(O)CN4CCOCC4)ccn23)cc(OC(F)F)c1C(=O)NC1CC1` (centres unmarked) [Cpd 330, N-cyclopropyl-2-(difluoromethoxy)-4-[7-(2-hydroxy-3-morpholino-propoxy)imidazo[1,2-a]pyridin-3-yl]-6-methoxy-benzamide], the IC50 against SIK1 fell in the range of 10 to 100 nM. Besides, the “IL-10 FCmax median” value in assay [1] is on record as “++ (>1.5-4.5)”.
Compound `COc1cc(-c2cnc3cc(OC[C@H]4CCCN4C)ccn23)cc2c1C(=O)N(CC(F)(F)F)CC2` [compound 124, 8-methoxy-6-[7-[[(2R)-1-methylpyrrolidin-2-yl]methoxy]imidazo[1,2-a]pyridin-3-yl]-2-(2,2,2-trifluoroethyl)-3,4-dihydroisoquinolin-1-one] registered an IC50 against SIK1 of over 500 nM. The “IL-10 FCmax median” value in assay [1] is “++ (>1.5-4.5)”.
On SIK1, `CCN(CC)CCOc1ccn2c(-c3cc4c(c(OC)c3)C(=O)N(CC(F)(F)F)CC4)cnc2c1` [compound 128, 6-[7-[2-(diethylamino)ethoxy]imidazo[1,2-a]pyridin-3-yl]-8-methoxy-2-(2,2,2-trifluoroethyl)-3,4-dihydroisoquinolin-1-one] displayed an IC50 of 100 to 500 nM. The “IL-10 FCmax median” value in assay [1] is “++ (>1.5-4.5)”.
The like results for `CCN1CCCCC1COc1ccn2c(-c3cc(OC)c(C(=O)NC4CC4)c(OC(F)F)c3)cnc2c1` (centres unmarked) [compound 83, N-cyclopropyl-2-(difluoromethoxy)-4-[7-[(1-ethyl-2-piperidyl)methoxy]imidazo [1,2-a]pyridin-3-yl]-6-methoxy-benzamide] were, in that order, 100 to 500 nM and “++ (>1.5-4.5)”.
`COc1cc(-c2cnc3cc(OCCN4CCOC[C@H]4C)ccn23)cc(OC(F)F)c1C(=O)NC1CC1` [compound 234, N-cyclopropyl-2-(difluoromethoxy)-6-methoxy-4-[7-[2-[(3R)-3-methylmorpholin-4-yl]ethoxy]imidazo[1,2-a]pyridin-3-yl]benzamide]: the concentration for half-maximal inhibition (IC50) against SIK1 is 10 to 100 nM. In assay [1], the “IL-10 FCmax median” value is given as “++ (>1.5-4.5)”.
For `CCNCCOc1ccn2c(-c3cc(OC)c(C(=O)NC4CC4)c(OC(F)F)c3)cnc2c1` [compound 37, N-cyclopropyl-2-(difluoromethoxy)-4-[7-[2-(ethylamino)ethoxy]imidazo[1,2-a]pyridin-3-yl]-6-methoxy-benzamide], the IC50 on SIK1 fell in the range of 10 to 100 nM. In addition, the “IL-10 FCmax median” value in assay [1] is on record as “++ (>1.5-4.5)”.
With `CN(C)CCOc1ccn2c(-c3cc(OC(F)F)c(C(=O)NC4CC4)c(OC(F)F)c3)cnc2c1` [compound 156, N-cyclopropyl-2,6-bis(difluoromethoxy)-4-[7-[2-(dimethylamino)ethoxy]imidazo[1,2-a]pyridin-3-yl]benzamide], the IC50 at SIK1 lay within 10 to 100 nM. In addition, in assay [1], the “IL-10 FCmax median” value is “++ (>1.5-4.5)”.
On the same counts, the results for `CN(C)CCOc1ccn2c(-c3cc4c(c(OC(F)F)c3)C(=O)N(CC(F)F)CC4)cnc2c1` [Cpd 150, 2-(2,2-difluoroethyl)-8-(difluoromethoxy)-6-[7-[2-(dimethylamino)ethoxy]imidazo[1,2-a]pyridin-3-yl]-3,4-dihydroisoquinolin-1-one] are 100 to 500 nM and “++ (>1.5-4.5)”.
Regarding `COc1cc(-c2cnc3cc(OC[C@H]4CCCN4C)ccn23)cc(OC(F)F)c1C(=O)NC1CC1` [compound 81, N-cyclopropyl-2-(difluoromethoxy)-6-methoxy-4-[7-[[(2R)-1-methylpyrrolidin-2-yl]methoxy]imidazo[1,2-a]pyridin-3-yl]benzamide], at SIK1, the IC50 fell in the range of 100 to 500 nM. Moreover, in assay [1], the “IL-10 FCmax median” value is listed as “++ (>1.5-4.5)”.
For the compound `COc1cc(-c2cnc3cc(OCCN4CCCCC4)ccn23)cc(OC(F)F)c1C(=O)NC1CC1` [compound 10, N-cyclopropyl-2-(difluoromethoxy)-6-methoxy-4-[7-[2-(1-piperidyl)ethoxy]imidazo [1,2-a]pyridin-3-yl]benzamide], the IC50 at SIK1 is 10 to 100 nM. Besides, the “IL-10 FCmax median” value in assay [1] is recorded as “++ (>1.5-4.5)”.
On the same counts, the results for `COc1cc(-c2cnc3cc(OCC(O)CN4CCCCC4)ccn23)cc(OC(F)F)c1C(=O)NC1CC1` (centres unmarked) [Cpd 321, N-cyclopropyl-2-(difluoromethoxy)-4-[7-[2-hydroxy-3-(1-piperidyl)propoxy]imidazo [1,2-a]pyridin-3-yl]-6-methoxy-benzamide] are 10 to 100 nM and “++ (>1.5-4.5)”.
